Experimental data from US10932483B2, “Sweetness enhancer” (PepsiCo, Inc., priority 2014, dated 2021).
Several values for one entry are separate records, joined by “and”; a condition that tells them apart may be missing. Equal values may be shown once. Entries after “also recorded” stand apart in the source; their conditions may differ.

Columns and labels:
human sense of taste [1] = assay: Lab taste test (sip, spit, rinse) of sweetener solutions containing phloroglucinol against reference sweetener solutions; format: in vivo
Method: (§1) General Tasting Procedure: Unless otherwise specified in a given example, tastings were performed by a single taster using a “sip, spit, rinse” protocol. Under this protocol, the taster: • a. sipped up to about 10 ml of a given solution and assessed the sweetness, mouthfeel, and other characteristics of the solution during its residence in the taster's mouth; • b. spit out the solution after making the assessment; and • c. rinsed with water to cleanse the palate before testing any further samples.
Reference solutions: 5%, 7%, and 9% aqueous sucrose (sugar) solutions were prepared.
Reference solutions: 5%, 7%, and 9% aqueous sucrose solutions were prepared as in Example 1.
Reference solutions: 5%, 7%, 8% and 9% sucrose solutions in aqueous pH 3.0 citrate buffer solutions (citric acid 2.26 g plus trisodium citrate 0.32 g in 2 L water) were prepared.
Reference solutions: 2.5%, 3.5%, and 4% aqueous fructose (Sigma) solutions were prepared.
Reference solutions: 5%, 7%, 8% and 9% aqueous glucose (Sigma) solutions were prepared.
Reference solutions: 5%, 6%, 7%, 8% and 9% aqueous sucrose solutions were prepared. […] The variants were then tasted and assessed for their similarity to the reference solutions.
Reference solutions: 8%, 9%, 10%, and 11% aqueous sucrose solutions were prepared.
Reference solutions: 250 ppm and 320 ppm aqueous rebaudioside A solutions were prepared.

human sense of taste [2] = assay: Taste of phloroglucinol in water, alone or with salt; format: in vivo
Method: as §1
To analyze this effect, an experiment was conducted to determine whether NaCl could be used as a supplemental sweetness enhancer.

human sense of taste [3] = assay: Taste of sugar solutions with phloroglucinol and salt against sugar controls; format: in vivo; settings: for phloroglucinol concentration required to achieve the sweetness of an 11% sugar solution: 8% sugar
Method: as §1
Half remained as a low control. Salt (300 ppm) was added to the other half (the “variant”). An 11% sugar solution was prepared as a high control.

human sense of taste [4] = assay: Taste of sugar solutions with phloroglucinol and supplemental sweetness enhancers; format: in vivo; settings: Example 22: 500 ppm phloroglucinol, 350 ppm rebaudioside C, 8% sugar
Method: as §1
Three tasters conducted taste experiments on the blends identified in the table, below.
Experiments were conducted utilizing phloroglucinol and rebaudioside C in a sugar solutions.
Two testers tasted each of solutions 1 through 5, in the table above.
Taste experiments were conducted with sugar solutions comprising phloroglucinol and one of rebaudioside B, rebaudioside M, and trilobatin as set forth in the table, below.
Two testers tasted these solutions.
Five aqueous solutions comprising sugar, phloroglucinol, and/or rubusoside were prepared as set forth in the table below and tested for sweetness.

human sense of taste [5] = assay: Taste of beverages (cola, SIERRA MIST, diet cola) containing phloroglucinol; format: in vivo
Method: Sources: A bottle of cola concentrate (HFCS-55) and a bottle of concentrate having ⅓ less HFCS (the “Brix-reduced syrup”) were obtained. […] Both concentrates were then used to make cola beverages (volume 4.5 carbonated water) in a 1 plus 5 throw manner.
Experiments were conducted on a sugar reduced cola beverage. A control bottle of cola concentrate (HFCS-55) and a bottle of Brix reduced variant concentrate having 35% less HFCS than the control were used. […] Both concentrates were then used to make cola beverages with volume 4.5 carbonated water in a 1 plus 5 throw manner.
Taste experiments were conducted for a diet cola beverage. Unsweetened diet cola concentrate was used. Control syrup 1 was made by adding 3000 ppm aspartame to the concentrate. Control syrup 2 was made by adding 2400 ppm rebaudioside M to the diet cola concentrate. […] All concentrates were then used to make diet cola beverages with volume 4.5 carbonated water in a 1 plus 5 throw manner.
The finished control diet cola beverage 1 contained 500 ppm aspartame.
A total of 5 diet cola tasters evaluated the four beverages.

human sense of taste [6] = assay: Taste of QUAKER Instant Oatmeal containing phloroglucinol; format: in vivo
Method: Sugar was added to unsweetened QUAKER Instant Oatmeal (IQO) Original flavor. A high sugar control comprising 8 g sugar per bag of IQO (29 g) was prepared. A low sugar control comprising 5 g sugar per bag of IQO (29 g) was also prepared. […] The high control, low control, and variant formulations were placed in individual beakers and combined with about 200 mL of hot water. The resulting mixtures were stirred and then tasted. Taste tests were conducted while the mixtures were still warm and after the mixtures had cooled to room temperature.
The high and low controls described in Example 14 were again prepared. […] The high control, low control, and variant formulations were placed in individual beakers and combined with about 200 mL of hot water. The resulting mixtures were stirred and then tasted. Tasting was performed while the IQO was warm and after the IQO cooled to room temperature.

human sense of taste [7] = assay: Sweet taste intensity ranking by trained sensory discrimination panelists; format: in vivo
Text: (§2) Panelists were asked to rank the samples in order of sweet taste intensity from low sweet to high sweet. Each panelist tasted each sample twice during the study such that each sample was judged a total of 30 times.
as §2
Panelists were asked to rank the samples in order of sweet taste intensity from low sweet to high sweet. Each panelist was presented a replicate set to render a total of 32 judgment data points.

[8] = Physicochemical properties of phloroglucinol; settings: concentrations described; higher temperatures; sunlight
human sense of taste [9] = assay: Taste of sugar solutions with phloroglucinol and salt against sugar controls; format: in vivo; settings: for Taste: body compared with 8% sugar control: 5% sugar in water
[10] = Example 8: 250 ppm phloroglucinol in 250 ppm aqueous rebaudioside A
[11] = Example 10, second taster: 250 ppm rebaudioside A with 800 ppm phloroglucinol
[12] = Example 13: 800 ppm phloroglucinol in SIERRA MIST
[13] = Example 25: 400 ppm phloroglucinol in 5% sucrose
[14] = Example 26: 400 ppm phloroglucinol and 200 ppm sodium chloride in 5% sucrose
[15] = Example 27: 800 ppm phloroglucinol in 8.475% sucrose
[16] = Example 17: 800 ppm phloroglucinol, 400 ppm salt, 8% sugar in water

Oc1cc(O)cc(O)c1 [phloroglucinol]
sweetness, as equivalent aqueous sucrose reference solution (human sense of taste [1]; Example 1: 400 ppm phloroglucinol in 5% aqueous sucrose, references 5%, 7%, 9% sucrose): > 5% and ~7% | temporal profile and quality of sweet taste (human sense of taste [1]; Example 2: 800 ppm phloroglucinol in 5% aqueous sucrose): sweetness of the variant took a split of a second to show but the backend seemed even sweeter; also recorded: the sweet taste was clean without lingering | sweetness, as equivalent sucrose reference solution (human sense of taste [1]; Example 3: 800 ppm phloroglucinol in 5% aqueous sucrose without buffer, references 5-9% sucrose in pH 3.0 citrate buffer): ~8% | temporal profile and quality of sweet taste (human sense of taste [1]; Example 3: 800 ppm phloroglucinol in 5% aqueous sucrose, references in pH 3.0 citrate buffer): sweetness of the variant took a split of a second to show but the backend seemed even sweeter; also recorded: the sweet taste was clean without lingering | sweetness, as equivalent aqueous fructose reference solution (human sense of taste [1]; Example 4: 800 ppm phloroglucinol in 2.5% aqueous fructose): > 3.5% and ~4% | temporal profile of sweet taste (human sense of taste [1]; Example 4: 800 ppm phloroglucinol in 2.5% aqueous fructose vs 4% fructose): the variant solution was sweeter in backend | sweetness, as equivalent aqueous glucose reference solution (human sense of taste [1]; Example 5: 800 ppm phloroglucinol in 5% aqueous glucose): ~8% and < 9% | dose response of apparent sweetness (FIG. 1) (human sense of taste [1]; Example 6: 40, 100, 200, 400, 600, 800 ppm phloroglucinol in 5% aqueous sucrose): approximately linear correlation between phloroglucinol concentration and apparent sweetness | sweetness, as equivalent aqueous rebaudioside A reference solution (human sense of taste [1]; [10]): ~320 ppm | taste quality (backend, bitter aftertaste of rebaudioside A) (human sense of taste [1]; [10]): a sweeter backend; also recorded: bitter aftertaste of rebaudioside A was not changed | bitterness of the variant solution (human sense of taste [1]; [11]): did not change | sweetness, as equivalent rebaudioside A reference solution (human sense of taste [1]; [11]): ~320 ppm | sweetness, as equivalent aqueous sucrose reference solution (human sense of taste [1]; Examples 2, 10: 800 ppm phloroglucinol in 5% aqueous sucrose, references 5%, 7%, 9% sucrose): > 7% and < 9% and ~8% | sweetness, as equivalent aqueous sucrose reference solution (human sense of taste [1]; Examples 7, 10, 11: 800 ppm phloroglucinol in 8% aqueous sucrose, first, second, third taster): > 10% and ~11% and > 11% | Taste (human sense of taste [2]; 300 ppm in water): No taste | sweet taste of phloroglucinol by itself (human sense of taste [2]; 300 ppm to 800 ppm in water): No sweet taste was observed; also recorded: does not have any taste | Taste (human sense of taste [2]; 400 ppm in water): No taste | Taste (human sense of taste [2]; 400 ppm phloroglucinol, 100 ppm salt in water): No taste | Taste (human sense of taste [2]; 500 ppm in water): No taste | Taste (human sense of taste [2]; 500 ppm phloroglucinol, 100 ppm salt in water): No taste | Taste (human sense of taste [2]; 600 ppm in water): No taste | Taste (human sense of taste [2]; 600 ppm phloroglucinol, 100 ppm salt in water): No taste | Taste, estimated sugar equivalent (human sense of taste [2]; 600 ppm phloroglucinol, 400 ppm salt in water): ~1% sugar | Taste (human sense of taste [2]; 800 ppm in water): No taste | taste of phloroglucinol in the presence of salt (human sense of taste [2]; Example 15: with sodium chloride): slightly sweet | phloroglucinol concentration required to achieve the sweetness of an 11% sugar solution (human sense of taste [3]; in the presence of 300 ppm salt): 500 ppm | phloroglucinol concentration required to achieve the sweetness of an 11% sugar solution (human sense of taste [3]; no salt): 800 ppm | sweetness, as equivalent sugar solution (human sense of taste [3]; Example 15 variant 2: 8% sugar, 500 ppm phloroglucinol, 300 ppm salt): 11 % sugar | sweetness compared with low control (no salt) and 11% sugar high control (human sense of taste [3]; Example 15 variant: 8% sugar, 300 ppm phloroglucinol, 300 ppm salt): much sweeter than the low control, but not quite as sweet as the high control | combination effect with rebaudioside C (human sense of taste [4]): synergistic | sweetness of variant cola beverage compared with control cola (11.3 Brix) (human sense of taste [5]; Example 12: 1/3 less HFCS (8 Brix without phloroglucinol), 800 ppm phloroglucinol): equal | mouthfeel and flavor of variant cola beverage (human sense of taste [5]; Example 12: 1/3 less HFCS, 800 ppm phloroglucinol): good mouthfeel; also recorded: more sour but with less caramel sweet flavor | sweetness after storage (human sense of taste [5]; Example 12 cola, stored at 90° F. for 18 days): sweetness remained about the same | body and sourness (human sense of taste [5]; [12]): good body; also recorded: Sourness was about the same | sweetness compared with untreated control (human sense of taste [5]; [12]): much sweeter than the control | sweetness of variant cola beverage compared with control cola (11.3 Brix) (human sense of taste [5]; Example 19: 35% less HFCS (7.5 Brix), 400 ppm phloroglucinol and 1% D-psicose): equal | mouthfeel of variant cola beverage (human sense of taste [5]; Example 19: 400 ppm phloroglucinol and 1% D-psicose): very good mouthfeel | sweetness compared with low control (5 g sugar) and high control (8 g sugar) (human sense of taste [6]; Example 14: 5 g sugar and 137 mg phloroglucinol per bag of IQO (29 g), warm and room temperature): sweeter than the low control but not quite as sweet as the high control | sweetness compared with high control (8 g sugar) (human sense of taste [6]; Example 21: 5 g sugar, 100 mg phloroglucinol, 1 g D-psicose per bag of IQO (29 g)): sweetness similar to the high control | sweet taste increased to, as sucrose equivalent (human sense of taste [7]; [13]): approximately 6.4% | sweetness enhancement (human sense of taste [7]; [13]): approximately 28% | sweet taste increased to, as sucrose equivalent (human sense of taste [7]; [14]): approximately 6.6% | sweetness enhancement (human sense of taste [7]; [14]): approximately 32% | statistical comparison with 11.3% sucrose solution (human sense of taste [7]; [15]): statistically indistinguishable from the 11.3% solution | sweet taste increased to, as sucrose equivalent (human sense of taste [7]; [15]): approximately 11.76% | sweetness enhancement (human sense of taste [7]; [15]): about 39% | stability in solution [8]: stable and does not precipitate out of solution at the concentrations described herein, or break down at higher temperatures or when exposed to sunlight | Taste: body compared with 8% sugar control (human sense of taste [9]; 600 ppm phloroglucinol, 400 ppm salt): more body | Taste: body compared with 8% sugar control (human sense of taste [9]; 800 ppm phloroglucinol, 400 ppm salt): more body | Taste: sweet taste as sugar equivalent (human sense of taste [9]; Example 17: 600 ppm phloroglucinol, 600 ppm salt, 8% sugar in water): ≥ 11 % sugar | Taste: body (human sense of taste [9]; [16]): high body | Taste: sweet taste as sugar equivalent (human sense of taste [9]; [16]): 12 % sugar | Taste: sweet taste as sugar equivalent (human sense of taste [9]; Example 17: 800 ppm phloroglucinol, no salt, 8% sugar in water): 11 % sugar | Taste: sweet taste as sugar equivalent (human sense of taste [9]; Example 17: 800 ppm phloroglucinol, no salt, 8% sugar in water, listed as Phloroglucinol): ~11% sugar
